Measurements published in US20030207843A1, “Treatment of drug-resistant human immunodeficiency virus infection” (priority 1999, published 2003).
Like-named read-outs stand apart in the source and are kept apart here.

Columns and labels:
HIV-1LAI W88G = test: p24 reduction assay in MT-2 cells, W88G; type: cell-based; conditions: for EC50: W88G
Experimental: (§1) Cells. MT-2 cells (AIDS Research and Reference Reagent Program, National Institute of Allergy and Infectious Diseases, National Institutes of Health) were maintained in RPMI 1640 supplemented with 10% fetal bovine serum (FBS; JRH Biosciences, Lenexa, Kans.), 10 mM HEPES buffer, 50 IU/ml penicillin and 50 μg/ml streptomycin.
(§2) Antiviral Susceptibility Assays. The antiviral activity of each compound was determined by inoculating MT-2 cells with HIV-1LAI at a multiplicity of infection (MOI) of 0.01 TCID50/cell, followed by incubation in the presence of three-fold serial drug dilutions (3 wells per dilution) (see Mellors, et. al., Antimicrob. Agents Chemother. 39:1087-1092). Five or seven days after infection, culture supernatants were harvested, lysed with 0.5% triton-X 100 and assayed for p24 antigen concentration using a commercial ELISA assay (DuPont, NEN Products, Wilmington, Del.). The antiviral activity of the compounds is expressed as the IC50, which is the concentration required to inhibit 50% of p24 antigen production. The fold-resistance of a test virus is calculated by dividing the IC50 of the test virus by the IC50 of the HIV-1LAI control virus.
(§3) Generation of Mutant Recombinant HIV-1. HIV-1 containing the desired mutations were generated by oligonucleotide directed mutagenesis (Altered Sites II, Promega) as previously described (Mellors, et. al., Molecular Pharm. 41:446-451). After mutagenesis, mutant RT was subcloned into the pxxHIV-1LAI cloning vector using the silent XmaI and XbaI restriction sites located at the 5′ and 3′ ends of RT. Clones were DNA sequenced to verify the presence of the desired mutation(s) and electroporated into MT-2 cells as described above to generate infectious mutant recombinant HIV-1.
(§4) Mutant RT was generated via oligonucleotide-directed mutagenesis and ligated into the pXXHIV-1LAI cloning vector. Cloning was facilitated by the presence of two silent restriction sites at the 5′ and 3′ ends (Xma1 and Xba1, respectively) of pXXHIV-1LAI RT. Infectious mutant recombinant HIV-1 was generated by electroporating MT-2 cells with mutated pXXHIV-1LAI clones. The presence of the desired mutations was verified by DNA sequencing.
(§5) Invention compounds were also evaluated against a panel of HIV-1LAI derived recombinants resistant to PFA and the PFA invention compounds, as shown in Table 7.

HIV-1LAI M41L/T215Y = test: p24 reduction assay in MT-2 cells, M41L/T215Y; type: cell-based; conditions: for EC50: M41L/T215Y; for Fold-resistance: M41L/T215Y relative to wild type virus
Experimental: as §1, §2, §3, §4
(§6) The multi-drug resistant HIV-1 strains, 11163p1 and 11588p1, are human clinical isolates having the RT mutations indicated. HIV-1 strains treated with the lipid analogs of the present invention include wild type, e.g., xxLAI, and the like, single mutation, e.g., xxLAI MI 84V (resistant to 3TC), xxLAI L74V (resistant to ddI and ddC), xxLAI K65R (resistant to ddI, ddC, DAPD, DXG, tenofovir, and adefovir), xxLAI T215Y (resistant to AZT), and the like, double mutations, e.g., xxLAI M41 L/T215Y (resistant to AZT), xxLAI MI 84V/T215Y (resistant to 3TC and AZT), and the like, and multiple mutations, e.g., xxLAI 4XAZT ((D67N, K70R, T215Y, K219Q) resistant to AZT)), xxLAI 4XAZT/M184V ((D67N, K70R, M 184V, T215Y, K219Q) resistant to AZT and 3TC), xxLAI M5456-12 (AZT+NNRTI resistant: D67N, K70R, K103N, T215Y), xxLAI G2-3g (AZT/3TC co-resistant: M41L, D67N, M184V, H208Y, L210W, R211K, L214F, T215Y, 1293V, E297A), 11163 (multinucleoside resistant virsus: M41L, A62V, V751, F77L, K103N, F116Y, Q151M, Y181C, M184V), 11588 (multinucleoside resistant virsus: A62V, K65R, K70R, V751, F77L, F116Y, Q151M, M184V, K219Q), and the like.

HIV-1LAI 4XAZT/M184V = test: p24 reduction assay in MT-2 cells, 4XAZT/M184V; type: cell-based; conditions: for Fold-resistance: 4XAZT/M184V relative to wild type virus
Experimental: as §1, §2, §3, §4, §6

HIV-1LAI Q161L = test: p24 reduction assay in MT-2 cells, Q161L; type: cell-based; conditions: Table 7; for EC50: Q161L; for Fold-resistance: Q161L relative to wild type virus
Experimental: as §1, §2, §3, §4, §5

HIV-1LAI 4XAZT/Q161L = test: p24 reduction assay in MT-2 cells, 4XAZT/Q161L; type: cell-based; conditions: Table 7; for EC50: 4XAZTQ161L; for Fold-resistance: 4XAZTQ161L relative to wild type virus
Experimental: as §1, §2, §3, §4, §5

HIV-1LAI L74V = test: p24 reduction assay in MT-2 cells, L74V; type: cell-based; conditions: for EC50: L74V; for Fold-resistance: L74V relative to wild type virus
Experimental: as §1, §2, §3, §4, §6

HIV-1LAI K65R = test: p24 reduction assay in MT-2 cells, K65R; type: cell-based; conditions: for EC50: K65R; for Fold-resistance: K65R relative to wild type virus
Experimental: as §1, §2, §3, §4, §6

HIV-1LAI 4XAZT/W88S = test: p24 reduction assay in MT-2 cells, 4XAZT/W88S; type: cell-based; conditions: Table 7; for EC50: 4XAZT/W88S; for Fold-resistance: 4XAZT/W88S relative to wild type virus
Experimental: as §1, §2, §3, §4, §5

HIV-1LAI 4XAZT/E89K = test: p24 reduction assay in MT-2 cells, 4XAZT/E89K; type: cell-based; conditions: Table 7; for EC50: 4XAZTE89K; for Fold-resistance: 4XAZTE89K relative to wild type virus
Experimental: as §1, §2, §3, §4, §5

[1] = system: K (multinucleoside resistant recombinant virus V75I, F77L, F116Y, Q151M); test: p24 reduction assay in MT-2 cells, virus K; type: cell-based, HIV-1; conditions: Table 4; for EC50: virus K, mean ± SD; for Fold-resistance: virus K relative to wild type virus
Experimental: as §1, §2
The MNR panel consisted of a virus containing the mutations V75I, F77L, F116Y and […], a virus containing the T69S[SA insert], and a clinical isolate carrying the classic MNR genotype (62V/751/77L/116Y/151M). Each of the PFA invention compounds retained potency against these viruses with fold resistance values of <2.

[2] = Table 7, W88G relative to wild type virus
[3] = Human immunodeficiency virus 1, MT2, Table 1, MOI 0.01
[4] = Human immunodeficiency virus 1, MT2
[5] = Human immunodeficiency virus 1, MT2, Table 3, mean ± SD
[6] = Table 1, 4xAZT/M184V, MOI 0.01, read-out: EC50
[7] = Table 5, 4XAZT/M184V, mean ± SD, read-out: EC50

Structure (SMILES)	Fold-resistance (HIV-1LAI W88G; [2])	Fold-resistance (HIV-1LAI M41L/T215Y; Table 5)	Fold-resistance (HIV-1LAI 4XAZT/M184V; Table 5)	Fold-resistance (HIV-1LAI Q161L)	Fold-resistance (HIV-1LAI 4XAZT/Q161L)	Fold-resistance (HIV-1LAI L74V; Table 3)	Fold-resistance (HIV-1LAI K65R; Table 3)	Fold-resistance (HIV-1LAI 4XAZT/W88S)	Fold-resistance [1]	EC50 (HIV-1LAI W88G; Table 7, read-out: EC50)	EC50 (HIV-1LAI M41L/T215Y; Table 1, MOI 0.01)	EC50 (HIV-1LAI M41L/T215Y; Table 5, mean ± SD)	EC50 (HIV-1LAI 4XAZT/M184V; [6])	EC50 (HIV-1LAI 4XAZT/M184V; [7])	EC50 (HIV-1LAI Q161L)	EC50 (HIV-1LAI 4XAZT/Q161L)	EC50 (HIV-1LAI L74V; Table 1, MOI 0.01)	EC50 (HIV-1LAI L74V; Table 3, mean ± SD)	EC50 (HIV-1LAI K65R; Table 1, MOI 0.01)	EC50 (HIV-1LAI K65R; Table 3, mean ± SD)	other results
O=C(O)P(=O)(O)O [PFA, phosphonoformate, reference compound]	14.28 (11.7)	(0.8)	(1.3)	14.14 (8.8)	9.40 (2.3)	(1.9)	(3.8)	10.40 (1.0)	(0.7)												EC50 (HIV-1LAI W88G; Human immunodeficiency virus 1, MT2, Table 7, read-out: EC50): 152 µM; Fold resistance (HIV-1LAI W88G; {}): 6.2 fold; EC50 (HIV-1LAI M41L/T215Y; [3]): 16.2 µM; EC50 (HIV-1LAI M41L/T215Y; Human immunodeficiency virus 1, MT2, Table 5, mean ± SD): 13.9 ± 4.14 µM; EC50 (HIV-1LAI 4XAZT/M184V; Human immunodeficiency virus 1, MT2, Table 1, 4xAZT/M184V, MOI 0.01): 15.7 µM; EC50 (HIV-1LAI 4XAZT/M184V; Human immunodeficiency virus 1, MT2, Table 5, 4XAZT/M184V, mean ± SD, read-out: EC50): 22.7 ± 15.8 µM; EC50 (HIV-1LAI Q161L; [4]): 115 µM; EC50 (HIV-1LAI 4XAZT/Q161L; [4]): 39.9 µM; EC50 (HIV-1LAI L74V; [3]): 37.4 µM; EC50 (HIV-1LAI L74V; [5]): 32.7 ± 9 µM; EC50 (HIV-1LAI K65R; [3]): 57.3 µM; EC50 (HIV-1LAI K65R; [5]): 67 ± 22.8 µM; EC50 (HIV-1LAI 4XAZT/W88S; [4]): 18.4 µM; EC50 (HIV-1LAI 4XAZT/E89K; [4]): 134 µM; EC50 [1, 4]: 21.4 ± 15.6 µM
CCCCCCCCCCCCCCCCCCOC[C@@H](O)COP(=O)(O)C(=O)O [B-PFA, 1-O-octadecyl-sn-glycero-3-PFA]	(>17.2)	(0.5)	(1.3)	(>17.2)	2.10 (2.5)	(2.5)	(8.2)	1.84 (1.6)	(1.6)	> 30 µM	1.25 µM	0.94 ± 1.08 µM	2.29 µM	2.29 ± 1.59 µM	> 30 µM	6.64 µM	4.25 µM	4.45 ± 2.26 µM	17.7 µM	14.7 ± 6.61 µM	EC50 (HIV-1LAI 4XAZT/W88S): 4.09 µM; EC50 (HIV-1LAI 4XAZT/E89K): 17.4 µM; Fold-resistance (HIV-1LAI 4XAZT/E89K): 14.9 (6.6); EC50 [1]: 4.2 µM
Cc1cn([C@H]2C[C@H](N=[N+]=[N-])[C@@H](CO)O2)c(=O)[nH]c1=O [AZT, 3′-Azido-3′-deoxythymidine]																					EC50 (HIV-1LAI W88G; Human immunodeficiency virus 1, MT2, Table 8, read-out: AZT EC50): 0.019 ± 0.013 µM; Fold resistance (HIV-1LAI W88G; Table 8, W88G relative to wild type virus): 0.9
CCCCCCCCCCCCCCCCCCOC[C@H](COP(=O)(O)C(=O)O)OCC [EB-PFA, 1-O-octadecyl-2-O-ethyl-sn-glycero-3-PFA]	0.64 (7.6)	(0.5)	(0.9)	0.04 (7.5)		(1.9)	(4.5)	0.21 (1.9)		6.8 µM	0.41 µM	0.3 ± 0.35 µM	0.58 µM	0.56 ± 0.08 µM	6.73 µM	1.18 µM	1.34 µM	1.21 ± 0.85 µM	3.22 µM	2.91 ± 1.3 µM	Fold resistance (HIV-1LAI W88G; Example 6, recombinant virus encoding W88G): 9.4 fold; EC50 (HIV-1LAI 4XAZT/W88S): 1.51 µM; EC50 (HIV-1LAI 4XAZT/E89K): 4.39 µM; Fold-resistance (HIV-1LAI 4XAZT/E89K): 4.59 (5.6); EC50 [1]: 0.9 ± 0.7 µM
CCCCCCCCCCCCCCCCCCOC[C@H](COP(=O)(O)C(=O)O)OC [MB-PFA, 1-O-octadecyl-2-O-methyl-sn-glycero-3-PFA]	4.42 (7.6)	(0.4)	(1.2)	1.58 (11.4)	0.33 (2.2)	(1.8)	(3.3)	0.81 (1.8)	(0.87)	5.88 µM	0.13 µM	0.18 ± 0.11 µM	0.48 µM	0.59 ± 0.36 µM	8.78 µM	1.87 µM	0.52 µM	0.88 ± 0.63 µM	1.24 µM	1.66 ± 0.72 µM	EC50 (HIV-1LAI 4XAZT/W88S): 1.54 µM; EC50 (HIV-1LAI 4XAZT/E89K): 9.28 µM; Fold-resistance (HIV-1LAI 4XAZT/E89K): 9.20 (11.1); EC50 [1]: 2 ± 0.6 µM
